The values that follow come from ChEMBL document CHEMBL3856192, “Aroylhydrazone iron chelators: Tuning antioxidant and antiproliferative properties by hydrazide modifications” (Eur J Med Chem, 2016).

Data set [1] is described as follows: Iron chelating activity assessed as Fe2+-compound complex formation at 5 uM measured for 360 secs by calcein based fluorescence assay relative to salicylaldehyde isonicotinoyl hydrazone. The format is physicochemical. The following applies: 0.1 h.
Data set [2] has as its system MCF7. Put plainly: Induction of transferrin labeled 59Fe mobilization in human MCF7 cells assessed as cellular 59Fe released at 25 uM after 3 hrs by gamma scintillation counting analysis (reference value: 11%). It counts as functional.
Data set [3] concerns MCF7. Put plainly: Inhibition of 59Fe uptake in human MCF7 cells labeled with 59Fe transferrin at 25 uM after 3 hrs relative to control. It counts as functional. As to conditions: MCF7, 3 h; call rule not given here.
The nature of data set [4]: Cytotoxicity against rat H9c2 cells assessed as decrease in cell viability after 72 hrs by neutral red staining based assay. It counts as toxicity.
Data set [5] can be described thus: Cytotoxicity against human MCF7 cells assessed as decrease in cell viability after 72 hrs by neutral red staining based assay. The format is functional. The following applies: MCF7, 72 h.
The nature of data set [6]: Cytotoxicity against human HL60 cells assessed as decrease in cell viability after 72 hrs by MTT assay. It counts as functional, cell-based. The following applies: HL-60, 72 h. In general terms: Tetrazolium dyes change colour on reduction, which living cells bring about.
Data set [7] relates to H9c2. The data set is described as follows: Selectivity index, ratio of IC50 for rat H9c2 cells to IC50 for human MCF7 cells. The format is functional.
Data set [8] deals with H9c2. Put plainly: Selectivity index, ratio of IC50 for rat H9c2 cells to IC50 for human HL60 cells. It counts as functional.
Data set [9] can be described thus: Stability in rabbit plasma assessed as parent compound remaining at 100 uM after 10 hrs by HPLC analysis. The format is ADME, cell-free, Oryctolagus cuniculus. As to conditions: read-out: Stability.
Data set [10] concerns H9c2. The data set is described as follows: Protection against t-BHP-induced oxidative injury in rat H9c2 cells assessed as increase in cell viability incubated for 10 mins followed by stimulation with t-BHP for 24 hrs by neutral red staining based assay. It counts as functional.
The nature of data set [11]: Iron chelating activity assessed as Fe3+-compound complex-induced antioxidant activity by measuring ascorbate oxidation level at iron binding equivalent of 3 measured after 10 to 40 mins in presence of 500 uM of citrate relative to control. The format is physicochemical.
A short description of data set [12]: Iron chelating activity assessed as Fe3+-compound complex-induced antioxidant activity by measuring ascorbate oxidation level at iron binding equivalent of 0.1 measured after 10 to 40 mins in presence of 500 uM of citrate relative to control. The format is physicochemical.
Data set [13] relates to H9c2. Put plainly: Protection against H202-induced oxidative injury in rat H9c2 cells assessed as increase in cell viability after 24 hrs by neutral red staining based assay. The format is functional. As to conditions: H9c2, 24 h.
A short description of data set [14]: Drug uptake in human SK-N-MC cells by beta scintillation counting analysis. The format is ADME, cell-based.
The nature of data set [15]: Antiproliferative activity against human SK-N-MC cells after 22 to 72 hrs by MTT assay. It counts as functional, cell-based.
Data set [16] can be described thus: Antiproliferative activity against rat L8 cells after 22 to 72 hrs by MTT assay. It counts as cell-based.
The nature of data set [17]: Antiproliferative activity against HUVEC after 22 to 72 hrs by MTT assay. The format is cell-based. The following applies: Homo sapiens.
A further data set concerns SK-N-MC. Put plainly: Selectivity index, ratio of IC50 for HUVEC to IC50 for human SK-N-MC cells.
Data set [18] can be described thus: Selectivity index, ratio of IC50 for rat L8 cells to IC50 for human SK-N-MC cells. The format is functional.
Data set [19] can be described thus: Iron chelating activity assessed as Fe3+-compound complex-induced antioxidant activity by measuring decrease in ascorbate oxidation level at iron binding equivalent of 3 measured after 10 to 40 mins in presence of 100 uM of citrate relative to control. The format is physicochemical.
In data set [20] the test system is H9c2. Put plainly: Selectivity index, ratio of IC50 for rat H9c2 cells to EC50 for rat H9c2 cells. The format is functional.

Take `C/C(=N\NC(=O)c1ccc(-c2ccccc2)cc1)c1ccccc1O`: the Activity in data set [1] is listed as 7%; with MCF7 [2], 41%. In the data set with MCF7 [3], the inhibition at 25 µM was 17 to 61%. Further, the IC50 at 72 h in data set [4] was > 100 µM. Also, the IC50 in [5] came to 4.6 µM; in data set [6], 2.7 µM. Also, the “Ratio IC50” value in the data set with H9c2 [7] is reported as >22; in the data set on H9c2 [8] it was >37. For the same compound, the remaining at 10 h, 100 µM in data set [9] came to 90%.
Consider `CC/C(=N\NC(=O)c1ccncc1)c1ccccc1O`, for which, in [5], the half-maximal inhibitory concentration (IC50) was 34.7 µM. Moreover, in the data set with H9c2 [10], the concentration giving a half-maximal response (EC50) worked out at 17.8 µM. Besides, the remaining at 10 h, 100 µM in data set [9] worked out at 41%.
With `C/C(=N\NC(=O)c1cccnc1)c1ccccc1O`, the Activity in data set [1] was 97 to 107%; in the data set on MCF7 [2], 54 - 57%; in data set [11] it was 10 to 44%. Moreover, the inhibition at 25 µM in the data set on MCF7 [3] was 17 to 61%. For the same compound, the concentration for half-maximal inhibition (IC50) at 72 h in data set [4] came to 6.8 µM. Moreover, the values for the IC50 in [5] and in data set [6] were 8.3 µM and 7.5 µM, respectively. For the same compound, the entries for the “Ratio IC50” value in the data set with H9c2 [7] and with H9c2 [8] were 0.8 and 0.9, respectively.
`CC(=O)N(O)CCCCCNC(=O)CCC(=O)N(O)CCCCCNC(=O)CCC(=O)N(O)CCCCCN` [DEFEROXAMINE]: the figures for the Activity in data set [11] and in data set [12] were 16% and 93%, respectively.
Consider `CC/C(=N\NC(=O)c1cccnc1)c1ccccc1O`, for which the Activity in data set [1] was 84 to 109%; in the data set on MCF7 [2] it was 50 - 56%; in data set [11], 10 to 44%. The compound further displayed an inhibition at 25 µM in the data set with MCF7 [3] of 17 to 61%. The EC50 in the data set on H9c2 [13] was 30 µM. Also, the concentration for half-maximal inhibition (IC50) at 72 h in data set [4] stood at 7.1 µM. In addition, the figures for the IC50 in data set [5] and in [6] were 5 µM and 4.9 µM, respectively. Also, the “Ratio IC50” value with H9c2 [7] is 1.4; with H9c2 [8], 1.5.
In the case of `CN(C)C(=S)NN=[14C](c1ccccn1)c1ccccn1`, the equilibrium dissociation constant (Kd) in data set [14] was 2.45 µM.
For `C/C(=N\NC(=O)c1ccnnc1)c1ccccc1O`, the Activity in data set [1] is 97 to 107%; in the data set on MCF7 [2], 54 - 57%; in data set [11] it was 10 to 44%. The compound also yielded an inhibition at 25 µM with MCF7 [3] of 17 to 61%. Also, the concentration giving a half-maximal response (EC50) in the data set on H9c2 [13] is 55.3 µM. Also, in [4], the half-maximal inhibitory concentration (IC50) at 72 h worked out at 22.8 µM. The IC50 is 7.6 µM in [5] and 6.4 µM in [6]. Besides, the “Ratio IC50” value in the data set on H9c2 [7] came out at 3; in the data set with H9c2 [8], 3.6.
On to `C/C(=N\NC(=O)c1ccncc1)c1ccccc1O`, for which, in data set [4], the IC50 at 72 h came to 12.6 µM. Moreover, the EC50 in the data set on H9c2 [10] was 11.4 µM. In data set [9], the remaining at 10 h, 100 µM turned out to be 26%.
Regarding `C/C(=N\NC(=O)c1cccc2ccccc12)c1ccccc1O`, the Activity was 79% in data set [1] and 54 - 57% in the data set on MCF7 [2]. This compound also registered an inhibition at 25 µM with MCF7 [3] of 17 to 61%. Further, the concentration for half-maximal inhibition (IC50) at 72 h in data set [4] was > 200 µM. Moreover, the 50% inhibitory concentration (IC50) came to 3.8 µM in [5] and 3.9 µM in [6]. For the same compound, the “Ratio IC50” value with H9c2 [7] and in the data set on H9c2 [8] was >52 in each case. Further, in data set [9], the remaining at 10 h, 100 µM was 95%.
As for `O=C(N/N=C/c1c(O)ccc2ccccc12)c1ccncc1`, the IC50 stood at 0.5 µM in [15], 5.4 µM in data set [16] and 20.1 µM in data set [17]. Moreover, the “Ratio IC50” value in the data set on SK-N-MC worked out at 40; in data set [18] it was 11.
On to `CC/C(=N\NC(=O)c1cccc2ccccc12)c1ccccc1O`, for which the Activity was 84 to 109% in [1] and 50 - 56% in the data set on MCF7 [2]. The inhibition at 25 µM in the data set on MCF7 [3] lay within 17 to 61%. In data set [4], the IC50 at 72 h is > 200 µM. Besides, the concentration for half-maximal inhibition (IC50) in [5] and in data set [6] was 3.5 µM throughout. Besides, the “Ratio IC50” value with H9c2 [7] and in the data set with H9c2 [8] was >57 in each case. The remaining at 10 h, 100 µM in data set [9] came out at 76%.
With `CC/C(=N\NC(=O)c1ccnnc1)c1ccccc1O`, the Activity is 84 to 109% in [1], 50 - 56% in the data set on MCF7 [2], 10 to 44% in data set [11] and “Active” in data set [19]. For the same compound, in the data set with MCF7 [3], the inhibition at 25 µM fell in the range of 17 to 61%. Also, the EC50 in the data set on H9c2 [13] turned out to be 25 µM. The IC50 at 72 h in [4] is > 200 µM. The concentration for half-maximal inhibition (IC50) in [5] turned out to be 14.9 µM; in data set [6], 9.1 µM. Further, the “Ratio IC50” value with H9c2 [7] is >13; in the data set with H9c2 [8] it was >21. Besides, in data set [9], the remaining at 10 h, 100 µM amounted to 85%. The “Ratio IC50/EC50” value with H9c2 [20] stood at 8.
Regarding `O=C(N/N=C/c1ccccc1O)c1ccncc1` [SALINAZID], the Activity was determined as 58% with MCF7 [2] and 7% in data set [11]. The compound also had an inhibition at 25 µM in the data set on MCF7 [3] of 15%. In addition, the IC50 at 72 h in [4] turned out to be 28.9 µM. Further, the IC50 in data set [5] worked out at 12.4 µM; in [6] it was 5.7 µM. Also, the “Ratio IC50” value was found to be 2.3 in the data set with H9c2 [7] and 5.1 in the data set on H9c2 [8]. Besides, in the data set with H9c2 [10], the EC50 was 18.2 µM.
With `CC/C(=N\NC(=O)c1cnccn1)c1ccccc1O`, the figures for the Activity (in data set [1]; in the data set with MCF7 [2]; in data set [11]) were 84 to 109%, 50% and 10 to 44%, respectively. The same compound yielded an inhibition at 25 µM with MCF7 [3] of 17 to 61%. Further, the half-maximal inhibitory concentration (IC50) at 72 h in data set [4] was > 100 µM. For the same compound, the IC50 in data set [5] amounted to 27.3 µM; in [6], 27 µM. The “Ratio IC50” value in the data set on H9c2 [7] and in the data set with H9c2 [8] was >4 each time.
`C/C(=N\NC(=O)c1cnccn1)c1ccccc1O`: the Activity in data set [1] is 97 to 107%; in the data set with MCF7 [2], 42%; in data set [11] it was 10 to 44%. Besides, in the data set on MCF7 [3], the inhibition at 25 µM was 17 to 61%. Also, in data set [4], the IC50 at 72 h amounted to 41.2 µM. The IC50 amounted to 22.4 µM in data set [5] and 22.3 µM in data set [6]. The results for the “Ratio IC50” value in the data set on H9c2 [7] and in the data set on H9c2 [8] were 1.8 and 1.9, respectively.
For `CC/C(=N\NC(=O)c1ccc(-c2ccccc2)cc1)c1ccccc1O`, the Activity in data set [1] was 84 to 109%; in the data set on MCF7 [2], 51%. The compound also returned an inhibition at 25 µM in the data set with MCF7 [3] of 17 to 61%. In [4], the IC50 at 72 h is > 100 µM. The IC50 in data set [5] and in [6] was 1.3 µM throughout. In addition, the “Ratio IC50” value in the data set on H9c2 [7] and in the data set with H9c2 [8] was >78 in each case. The remaining at 10 h, 100 µM in [9] came to 41%.

In general, inhibition refers to the relative decrease from the control value, in per cent. A low value points to a weak effect. The IC50 is the concentration that inhibits the measured activity by half. By EC50 is commonly meant the concentration that produces a half-maximal response. As a reminder, the Kd is the constant that tells how readily two partners part at equilibrium. A higher Kd goes with a looser complex.
